≈ marks a conversion by molar mass, not a printed value. Marks after values point to notes of the source that are not given here.

One data set is described as follows: physchem. To be noted: water.
A short description of data set [1]: Physical stability of aqueous corticosteroid solutions (ethanol stock added to saline or x-ray contrast agent).
For data set [2], the system named is focal cerebral ischemia (middle cerebral artery occlusion). In words: Focal cerebral ischemia, intraluminal suture occlusion of the middle cerebral artery (MCAO); relative infarction volume by TTC staining. The format is in vivo. The note with it: for Relative infarction volume expressed as percent of the total brain volume of the right hemisphere, mean: 0.012 mg/kg intrathecal single dose (example 3), control 18.08, n 15.

The nature of data set [3]: Solubility in water at room temperature.
Data set [4] is described as follows: Blood glucose with glucose oxidase reagent strips in the MCAO animals of Example 5. To be noted: intrathecal 0.012 mg/kg; venous blood preoperatively, prior to, 2 h and 24 h after administration; versus saline control (FIG. 1).
Experimental: In the animals used in ‘Example 5’ additionally blood glucose was measured with glucose oxidase reagent strips (Accu-Chek® Sensor, Roche Diagnostik GmbH, Mannheim, Germany) using a drop of venous blood preoperatively, immediately prior to, at 2 hours and at 24 hours after Triamcinolone acetonide administration.
The mark [5] stands for this setting: Isovist 300, time after mixing 0.

As a reminder, the solubility is the concentration that dissolves in the medium under given conditions. Read a low solubility as a poorly soluble substance. In the case of `C[C@@H]1C[C@H]2[C@@H]3CCC4=CC(=O)C=C[C@]4(C)[C@@]3(F)[C@@H](O)C[C@]2(C)[C@@]1(O)C(=O)CO` [Dexamethasone, dexamethasone], in the data set “physchem”, the solubility is ~85 µg/mL (≈ 217 µM). Moreover, the “Physical stability (appearance)” value in data set [1] (Isovist 300, 2 h after mixing) was “clear”; in data set [1] (Isovist 300, 48 h after mixing), “clear”; in data set [1] (setting [5]), “clear”; in data set [1] (Saline, 2 h after mixing) it was “clear”; in data set [1] (Saline, time after mixing 0), “clear”; in data set [1] (Ultravist 300, 2 h after mixing) it was “clear”. Also, the “Physical stability (appearance)” value in data set [1] (Ultravist 300, 48 h after mixing) was “clear”; in data set [1] (Ultravist 300, time after mixing 0) it was “clear”.
With `CC1(C)O[C@@H]2C[C@H]3[C@@H]4CCC5=CC(=O)C=C[C@]5(C)[C@@]4(F)[C@@H](O)C[C@]3(C)[C@]2(C(=O)CO)O1` [Triamcinolone acetonide], the “Relative infarction volume expressed as percent of the total brain volume of the right hemisphere, mean” value in data set [2] (drug administration 30 Min after MCAO) is reported as 12.86* percent; in data set [2] (drug administration 1 h after MCAO), 9.68** percent; in data set [2] (drug administration 2 h after MCAO), 10.57* percent; in data set [2] (drug administration 4 h after MCAO), 9.05** percent. For the same compound, the “reduction in infarction size compared to controls” value in data set [2] (0.012 mg/kg intrathecally, preparation of example 2, 30 minutes after MCA occlusion) is listed as 33%. Moreover, the “infarction volume (percent of the total brain volume of the right hemisphere)” value in data set [2] (0.012 mg/kg intrathecally, preparation of example 2, 30 minutes after MCA occlusion, sacrificed 24 h after MCAO, controls 20.0±8.0%, p=0.02) was found to be 13.4±6.5%. Besides, the solubility in data set [3] is ~20 µg/mL (≈ 46 µM). Further, the “effect on blood glucose” value in data set [4] is given as “does not cause any additional effect”. In addition, the “Physical stability (appearance)” value in data set [1] (Isovist 300, 2 h after mixing) is recorded as “clear”; in data set [1] (Isovist 300, 48 h after mixing), “fine particles”; in data set [1] (setting [5]), “clear”; in data set [1] (Saline, time after mixing 0), “clear (?)”; in data set [1] (Ultravist 370, 2 h after mixing) it was “clear”; in data set [1] (Ultravist 370, 48 h after mixing), “clear”. Also, in data set [1] (Ultravist 370, time after mixing 0), the “Physical stability (appearance)” value was “clear”.

Values taken from patent US20070004692A1, “Preparations and therapy of intrathecal inflammatory disease” (priority 2005, published 2007).
